{"source": "patent US20210386367A1", "about": "“DEVICES AND SYSTEMS FOR GASTROINTESTINAL MICROBIOME DETECTION AND MANIPULATION” (Progenity, Inc., priority 2018, published 2021)", "format_in_all_cases": "cell-based", "key": {"[1]": {"tested_on": "Streptococcus spp. clinical isolates", "test": "MIC distribution against clinical isolates", "conditions": "54 Streptococcus spp. isolates", "source_text": "(n=19 S. pyogenes, n=20 S. agalactiae and n=20 Viridans group Streptococcus) clinical isolates (μg/mL).\nAs used herein, “minimum inhibitory concentration” or “MIC” refers to the lowest concentration of an antimicrobial agent, for example, an antimicrobial agent as described herein, required to inhibit the growth of an organism. […] “MIC90” represents the MIC value at which ≥90% of the strains within a test population are inhibited; the 90th percentile.\nMany susceptibility testing methods are known in the art and can be used as described herein (see, e.g., Jorgensen and Ferraro (2009) Clinical Infectious Diseases 49:1749-1755; and Maurer et al. (2017) Infectious Disease Reports 9:6839; the entire contents of each of the foregoing are incorporated herein by reference). For example, antimicrobial susceptibility can be determined using conventional culture based methods such as the broth or agar dilution test. In these dilution tests, the bacterial isolate of interest is inoculated onto different media that include serial dilutions of an antimicrobial agent, and incubated under appropriate conditions (e.g., overnight at 37° C.) to allow for growth to occur. Following the incubation period, the media is examined to determine bacterial growth. The lowest concentration of antibiotic that prevents growth represents the minimal inhibitory concentration (MIC). Broth dilution tests can be miniaturized and mechanized allowing for reproducibility and high throughput."}, "Enterococcus faecalis": {"tested_on": "Enterococcus faecalis", "test": "Broth microdilution MIC, 50 clinical isolates", "outline": "(§1)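 CLSI broth microdilution in cation-adjusted Mueller Hinton broth, with 3% lysed horse blood added for streptococci. Two-fold dilutions, inoculum ~5×10^5 CFU/mL, 35° C for 16-24 hr in ambient air (streptococci with CO2 planchets). MIC = lowest concentration inhibiting visible growth.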"}, "[2]": {"tested_on": "Staphylococcus aureus clinical isolates", "test": "MIC distribution against clinical isolates", "conditions": "50 S. aureus isolates"}, "Streptococcus spp.": {"tested_on": "Streptococcus spp.", "test": "Broth microdilution MIC, 54 clinical isolates", "conditions": "54 Streptococcus spp. clinical isolates", "protocol": "(§2) Minimal inhibitory concentration (MIC) values were determined by broth microdilution or agar dilution in accordance with guidelines from the Clinical and Laboratory Standards Institute (CLSI; (1) “Methods for Dilution Antimicrobial Susceptibility Tests for Bacteria That Grow Aerobically; Approved Standard; 11th ed.” CLSI standard M07-A11, 2018; (2) “Performance Standards for Antimicrobial Susceptibility Testing; Twenty-Eighth Informational Supplement,” CLSI document M100-S28, 2018; and (3) “Methods for Antimicrobial Susceptibility Testing of Anaerobic Bacteria; Approved Standard—Eighth Edition,” CLSI document M11-A8, 2012).\n(§3) Tested aerobically by broth microdilution: • Escherichia coli, n=50 • Klebsiella spp., n=50 • Pseudomonas aeruginosa, n=50 • Streptococcus spp., n=50 • Staphylococcus aureus, n=50 • Enterococcus faecalis, n=50 • Enterobacter aerogenes, n=50 • Proteus mirabilis, n=50\n(§4) Broth microdilution testing of aerobic bacteria was conducted in cation-adjusted Mueller Hinton broth (MHBII). For testing streptococci, lysed horse blood (LHB) was added to MHBII broth at a final concentration of 3%. Where LHB was used, it was added after filtering.\n(§5) Broth microdilution susceptibility testing in 96-well microplates was conducted in accordance with CLSI methods (1) and (2). Automated liquid handlers were used to conduct serial dilutions and liquid transfers, including the Multidrop 384 (Labsystems, Helsinki, Finland), Biomek 2000, and the Biomek FX (Beckman Coulter, Fullerton, Calif.). All wells in columns 2 through 12 of a standard 96-well microdilution plate (Costar 3795) were filled with 150 μL of the appropriate diluent. Then, 300 μL of the test agents were added to the wells of column 1 of the plates at 100× the highest final concentration to be tested. Serial two-fold dilutions were made across the rows through column 11 using the Biomek 2000. The wells of column 12 contained no drug and served as the growth control wells. This plate served as the “mother plate” from which MIC assay plates or “daughter plates” were made.\n(§6) The daughter plates were loaded with 190 μL per well of the appropriate medium using the Multidrop 384. The daughter plates were created using the Biomek FX which transferred 2 μL of drug solution from each well of a mother plate to each corresponding well of the daughter plate in a single step. A standardized inoculum of each test organism was prepared per CLSI methods (1) to equal a 0.5 McFarland standard, followed by a dilution of 1:20 for aerobes and 1:10 for anaerobes. The plates were then inoculated with 10 μL of the diluted inoculum using the Biomek 2000 from low to high drug concentration, resulting in a final concentration of approximately 5×10^5 CFU/mL per well. An un-inoculated plate was incubated in parallel for each medium for the purpose of assessing solubility of the drug in the test media.\n(§7) Inoculated plates were stacked 3 or 4 high, covered with a sterile lid on the top plate, placed into boxes with CO2 planchets (streptococci) or plastic bags (all other isolates). Plates were incubated at 35° C. for 16-24 hr in ambient air for aerobes or for 42-48 hr in the anaerobic environment of the Bactron II anaerobe chamber (Sheldon Manufacturing Co.; Cornelius, Oreg.). Following incubation, the microplates were removed from the incubator and viewed from the bottom using a plate viewer. The MIC values were read and recorded as the lowest concentration of drug that inhibited visible growth of the organism as per CLSI methods (1) and (2)."}, "[3]": {"tested_on": "Viridans group Streptococcus", "test": "Broth microdilution MIC, 15 clinical isolates", "conditions": "15 Viridans group Streptococci clinical isolates", "protocol": "as §2, §3, §4, §5, §6, §7"}, "Staphylococcus aureus": {"tested_on": "Staphylococcus aureus", "test": "Broth microdilution MIC, 50 clinical isolates (28 MRSA)", "outline": "as §1"}}, "data": [{"substance": "piperacillin/tazobactam [piperacillin-tazobactam]", "values": [{"measurement": "Cumulative percentage of isolates inhibited at MIC", "setting": "[1]; MIC 0.015 μg/mL", "value": 1.9, "unit": "%"}, {"measurement": "Number of test isolates at MIC", "setting": "[1]; MIC 0.015 μg/mL", "value": 1}, {"measurement": "Cumulative percentage of isolates inhibited at MIC", "setting": "[1]; MIC 0.03 μg/mL", "value": 14.8, "unit": "%"}, {"measurement": "Number of test isolates at MIC", "setting": "[1]; MIC 0.03 μg/mL", "value": 7}, {"measurement": "Cumulative percentage of isolates inhibited at MIC", "setting": "[1]; MIC 0.06 μg/mL", "value": 44.4, "unit": "%"}, {"measurement": "Number of test isolates at MIC", "setting": "[1]; MIC 0.06 μg/mL", "value": 16}, {"measurement": "Cumulative percentage of isolates inhibited at MIC", "setting": "[1]; MIC 1 μg/mL", "value": 90.7, "unit": "%"}, {"measurement": "Number of test isolates at MIC", "setting": "[1]; MIC 1 μg/mL", "value": 1}, {"measurement": "Cumulative percentage of isolates inhibited at MIC", "setting": "[1]; MIC 2 μg/mL", "value": 94.4, "unit": "%"}, {"measurement": "Number of test isolates at MIC", "setting": "[1]; MIC 2 μg/mL", "value": 2}, {"measurement": "Cumulative percentage of isolates inhibited at MIC", "setting": "[1]; MIC 4 μg/mL", "value": 100.0, "unit": "%"}, {"measurement": "Number of test isolates at MIC", "setting": "[1]; MIC 4 μg/mL", "value": 3}, {"measurement": "MIC50", "setting": "Enterococcus faecalis", "value": 4, "unit": "µg/mL"}, {"measurement": "MIC90", "setting": "Enterococcus faecalis", "value": 8, "unit": "µg/mL"}, {"measurement": "Mode", "setting": "Enterococcus faecalis", "value": 4, "unit": "µg/mL"}, {"measurement": "Cumulative percentage of isolates inhibited at MIC", "setting": "[2]; MIC 0.5 μg/mL", "value": 6.0, "unit": "%"}, {"measurement": "Number of test isolates at MIC", "setting": "[2]; MIC 0.5 μg/mL", "value": 3}, {"measurement": "Cumulative percentage of isolates inhibited at MIC", "setting": "[2]; MIC 1 μg/mL", "value": 24.0, "unit": "%"}, {"measurement": "Number of test isolates at MIC", "setting": "[2]; MIC 1 μg/mL", "value": 9}, {"measurement": "Cumulative percentage of isolates inhibited at MIC", "setting": "[2]; MIC 2 μg/mL", "value": 42.0, "unit": "%"}, {"measurement": "Number of test isolates at MIC", "setting": "[2]; MIC 2 μg/mL", "value": 9}, {"measurement": "Cumulative percentage of isolates inhibited at MIC", "setting": "[2]; MIC 4 μg/mL", "value": 46.0, "unit": "%"}, {"measurement": "Number of test isolates at MIC", "setting": "[2]; MIC 4 μg/mL", "value": 2}, {"measurement": "Cumulative percentage of isolates inhibited at MIC", "setting": "[2]; MIC 8 μg/mL", "value": 52.0, "unit": "%"}, {"measurement": "Number of test isolates at MIC", "setting": "[2]; MIC 8 μg/mL", "value": 3}, {"measurement": "Cumulative percentage of isolates inhibited at MIC", "setting": "[2]; MIC 16 μg/mL", "value": 54.0, "unit": "%"}, {"measurement": "Number of test isolates at MIC", "setting": "[2]; MIC 16 μg/mL", "value": 1}, {"measurement": "Cumulative percentage of isolates inhibited at MIC", "setting": "[2]; MIC 32 μg/mL", "value": 66.0, "unit": "%"}, {"measurement": "Number of test isolates at MIC", "setting": "[2]; MIC 32 μg/mL", "value": 6}, {"measurement": "Cumulative percentage of isolates inhibited at MIC", "setting": "[2]; MIC 64 μg/mL", "value": 92.0, "unit": "%"}, {"measurement": "Number of test isolates at MIC", "setting": "[2]; MIC 64 μg/mL", "value": 13}, {"measurement": "Cumulative percentage of isolates inhibited at MIC", "setting": "[2]; MIC >64 μg/mL", "value": 100.0, "unit": "%"}, {"measurement": "Number of test isolates at MIC", "setting": "[2]; MIC >64 μg/mL", "value": 4}, {"measurement": "MIC50", "setting": "Streptococcus spp.", "value": 0.12, "unit": "µg/mL"}, {"measurement": "MIC90", "setting": "Streptococcus spp.", "value": 1, "unit": "µg/mL"}, {"measurement": "MIC range", "setting": "Streptococcus spp.", "value": "0.015 to 4", "unit": "µg/mL"}, {"measurement": "Mode", "setting": "Streptococcus spp.; modal MIC", "value": 0.25, "unit": "µg/mL"}, {"measurement": "MIC50", "setting": "[3]", "value": 0.12, "unit": "µg/mL"}, {"measurement": "MIC90", "setting": "[3]", "value": 4, "unit": "µg/mL"}, {"measurement": "MIC range", "setting": "[3]", "value": "0.015 to 4", "unit": "µg/mL"}, {"measurement": "Mode", "setting": "[3]; modal MIC", "value": 0.06, "unit": "µg/mL"}, {"measurement": "MIC50", "setting": "Staphylococcus aureus", "value": 8, "unit": "µg/mL"}, {"measurement": "MIC90", "setting": "Staphylococcus aureus", "value": 64, "unit": "µg/mL"}, {"measurement": "Mode", "setting": "Staphylococcus aureus", "value": 64, "unit": "µg/mL"}, {"measurement": "% R", "setting": "Staphylococcus aureus; FDA breakpoints", "value": 48, "unit": "% ^1"}, {"measurement": "% S", "setting": "Staphylococcus aureus; FDA breakpoints", "value": 52, "unit": "% ^1"}]}]}
